Experimental data from US20060014193A1, “Nucleoside phosphoramidates and nucleoside phosphoramidases” (priority 2004, published 2006).

Experiments:
[1] = target: T1, hHINT1 (Homo sapiens, UniProt P49773); experiment: Catalytic activity (velocity) of cloned, purified phosphoramidase with AMPNH2; format: biochemical
From the text: The enzyme responsible for hydrolysis of AZT amino acid phosphoramidates was cloned and characterized. After construction of a cDNA library from peripheral blood mononuclear cells (PBMCs) in T7Select10-3b phage, the phage display technique was employed to isolate the enzyme by affinity chromatography. After three rounds of phage selection and ampilification with an affinity column constructed from the L-tryptophan carbamate, DNA from ten selected plaques was amplified by PCR and sequenced. […] Hint1 is a member of the HIT protein superfamily, which consists of a recently identified adenosine 5′-monophosphoramide hydrolases from rabbit and yeast.
Velocity of the enzymes was determined at pH 7.2 at room temperature in the presence of 10 mM AMPNH2.

[2] = system: BB2-1 (-HINT) cell lysates; experiment: 31P NMR phosphoramidase activity in cell lysates of hinT deletion strain; format: biochemical, E. coli
Method: (§1) Phosphoramidase activity in cell lysates was measured by the ^1H-decoupling mode of phosphorus-31 NMR spectroscopy (Varian VAC-300 spectrometer), which can clearly distinguish the substrate, AMP-NH2, and the product, adenosine 5′-monophosphate (AMP). NMR spectrometry is suitable for quantitation by integration of the area under the peak, which is proportional to the amount of nuclei present. The relative ratio of peak areas can be used to calculate the amount of turnover corrected based on a standard curve.
Cell lysates from E. coli Tuner(DE3)pLacI cells (Novagen) were obtained by treatment with lysozyme (1 mg/ml) and the DNA was precipitated by protamine sulfate followed by centrifugation to remove cell debris. The supernatant was dialyzed extensively against Buffer A (20 mM Tris (pH 7.0); 1 mM EDTA; 1 mM DTT, 0.01 mM PMSF) to remove cellular phosphates and nucleotides. […] The reactions were terminated by snap freezing in a dry ice/acetone slush bath and lyophilized for 5 h. The samples were then dissolved in NMR buffer (600 μL, 50 mM EDTA, 20 mM HEPES (pH 7.2), and 1 mM TMP (trimethylphosphate, internal standard)) and the insoluble portion was spun down by centrifugation at 12,500×g for 5 min. A ^31P NMR spectrum was then collected for the supernatant. For the low pH control experiment, 10 mM AMP-NH2 in reaction buffer (500 μL, pH 2.0) was incubated at 37° C. for 12 h and the 31p signal was detected under the same conditions.
The E. coli hinT gene in strain BW25113 was disrupted as previously described (Datsenko & Wanner, 2000, PNAS USA, 97:6640-6645). Plasmid pKD3 and primers 7024 and 7025 (Table 2) were used for amplification of the chloramphenicol resistance marker (Cm^r). Stable chloramphenicol resistant transformants of BW25113 were tested by PCR with primers 7026 and 7027 to confirm correct recombination of the Cm^r marker into the hinT locus. A strain that tested positive by PCR was named BB1. Strain BB3 was constructed by removing the antibiotic resistance marker using Red recombinase as described previously (Datsenko & Wanner, supra). The hinT gene was amplified from the chromosomal DNA of E. coli strain BW25113 with primers 7328 and 7329. The product of this reaction was cloned into Bluescript SK+ using EcoRI and BamHI sites included in the primers' sequences. The resulting plasmid was named pB429. […] Plasmids pB432 and pB433 were obtained by cloning HindIII-EcoRI fragments containing wild type and H101A mutated alleles of hinT from plasmids pB429 and pB431 into plasmid pACYC184. All E. coli transformations were performed by electroporation.
To determine if E. coli hinT is solely responsible of the observed lysates' phosphoramidase activity, a mutant strain, BB1, in which the hinT gene was replace with the chloramphenicol resistance marker, was constructed. The phosphoramidase activities of the wild-type E. coli BL21 Star strain and the mutant strain lysates were determined (Table 3). […] (Table 2). Therefore, the adenosine phosphoramidase activity observed for E. coli cell lysates appears to be totally dependent on hinT.

[3] = target: T1, hHINT1; conditions: literature (J. Biol. Chem. 2004, 279, 18711; 2002, 277, 10852); cited from earlier work
[4] = target: T2, E. coli Tuner(DE3)pLacI cell lysates (Escherichia coli, UniProt P0ACE7); experiment: 31P NMR phosphoramidase activity in cell lysates; format: biochemical
T2 construct: Cell lysates from E. coli Tuner(DE3)pLacI cells (Novagen) were obtained by treatment with lysozyme; host or cells: E. coli Tuner(DE3)pLacI
Method: as §1
Cell lysates from E. coli Tuner(DE3)pLacI cells (Novagen) were obtained by treatment with lysozyme (1 mg/ml) and the DNA was precipitated by protamine sulfate followed by centrifugation to remove cell debris. The supernatant was dialyzed extensively against Buffer A (20 mM Tris (pH 7.0); 1 mM EDTA; 1 mM DTT, 0.01 mM PMSF) to remove cellular phosphates and nucleotides. Phosphate free cell lysates (0.75 mg total protein) were incubated with 5 mM AMP-NH2 in 0.5 ml reaction buffer (0.5 mM MgCl2, 20 mM HEPES (pH 7.2)) at 37° C. for intervals of 15 min, 30 min, and 12 h. The reactions were terminated by snap freezing in a dry ice/acetone slush bath and lyophilized for 5 h. […] For the low pH control experiment, 10 mM AMP-NH2 in reaction buffer (500 μL, pH 2.0) was incubated at 37° C. for 12 h and the 31p signal was detected under the same conditions. […]

T1 sequence (P49773 whole entry): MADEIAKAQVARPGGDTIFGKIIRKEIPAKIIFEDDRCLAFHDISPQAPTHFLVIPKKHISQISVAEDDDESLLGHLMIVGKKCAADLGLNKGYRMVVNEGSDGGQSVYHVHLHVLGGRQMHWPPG
T2 sequence (P0ACE7 whole entry): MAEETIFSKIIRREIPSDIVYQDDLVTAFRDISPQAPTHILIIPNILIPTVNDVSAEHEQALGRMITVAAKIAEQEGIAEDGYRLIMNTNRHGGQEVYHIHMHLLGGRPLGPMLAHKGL

Nc1ncnc2c1ncn2[C@@H]1O[C@H](COP(N)(=O)O)[C@@H](O)[C@H]1O [AMP-NH2, Adenosine 5′-monophosphoramidate]
Hydrolysis by over-expressed, purified human Hint1 [1]: efficiently hydrolyze
Velocity ([1]; pH 7.2, room temperature, 10 mM AMPNH2): 5.46 nmol/µg/min
AMP formation with lysates of hinT deletion strain BB1 [2]: no AMP formation could be observed
Specific activity ([2]; 0.2 mg protein, 30 min): 0 nmol/mg/min
Specific activity ([2]; 0.5 mg protein, 30 min): 0 nmol/mg/min
Specific activity ([2]; 0.5 mg protein, 70 min): 0 nmol/mg/min
Specific activity ([2]; 0.5 mg protein, 1380 min): 0 nmol/mg/min
Average specific activity ([2]; average): 0 nmol/mg/min
Kcat [3]: 0.2 s⁻¹
Km [3]: 0.068 µM
Extent of hydrolysis to AMP ([4]; 12 h incubation, 37° C.): complete hydrolysis
Hydrolysis rate by E. coli cell lysates ([4]; pH 7.0, 37° C., 5 mM, averaged for 15 min and 30 min): 76.3 (±20.9) nmol mg^−1 min^−1
